Data on 3 compounds can be found in patent publication US12514943B2 (priority 2020, dated 2026).

The subject of the experiment is Aspergillus brasiliensis (ATCC 16404). Description: Evaluation test for microbicidal effect, suspension test EN 13624:2013 (clean conditions). It counts as cell-based. The note with it: equal molar amount instead of glycine in the formula of Example 1-1.
In the case of `CC(=O)O` [acetic acid], the “enhancement of the microbicidal activity of the acidic oxidant of peracetic acid and hydrogen peroxide (in words)” value (“enhancement” for short) is recorded as “could not enhance the microbicidal activity”.

With `O=P([O-])([O-])O.[K+].[K+]` [dipotassium hydrogen phosphate], the “enhancement” value is on record as “could not enhance the microbicidal activity”.

In the case of `O=P([O-])([O-])[O-].[Na+].[Na+].[Na+]` [trisodium phosphate], the “enhancement” value is given as “could not enhance the microbicidal activity”.
